Where no end group is shown, it is not given here.
What was measured:
[1] = test system: RHAMMv4 overexpressing cells; experiment: podosome formation in RHAMMv4 overexpressing cells (cortactin marker); format: cell-based; details: RHAMMv4 overexpression
Excerpt: (§1) To further illustrate the relationship between RHAMM, erk activity and podosome formation in transient stage cells, podosome formation is shown to be inhibited by inhibitors of erk activity. […] Overexpression of RHAMMv4 results in a sustained high production of podosomes, detected by the marker protein cortactin (A). […] Overexpression of RHAMMv4 enhances cell migration into wounds (D) compared to the parent 10T1/2 fibroblast line that produces little RHAMMv4 (E).

[2] = test system: RHAMMv4 overexpressing cells; experiment: cell migration into wounds / wound repair of RHAMMv4 overexpressing cells; format: cell-based
Excerpt: as §1

[3] = test system: MDA231 human breast cancer cells; experiment: cell motility of MDA231 breast cancer cells; format: cell-based
MDA231 cells = experiment: in vitro invasion of MDA231 cells; format: cell-based, human
LR21 cells = experiment: podosome formation in LR21 cells treated with exon 4 peptide (cortactin or CAS); format: cell-based
Excerpt: Podsomome formation was visualized using either fluorescent cortactin or CAS, the latter being a particularly useful marker for podosomes as illustrated by the micrographs in FIG. 17B.

excisional skin wound = experiment: rat punch biopsy excisional skin wound model; format: in vivo; details: local application
ND4 transgenic mice = experiment: ND4 transgenic mouse model of multiple sclerosis (demyelination clinical signs); format: in vivo; details: 10 mg/kg intraperitoneally three times per week
Method: Briefly, transgenic mice (ND 4) bearing 70 copies of the transgene for DM20, a myelin proteolipid protein, were utilized for assignment of scores based upon clinical signs of demyelination. Clinical signs which were assessed included general shaking, seizures, head jerk, hind-limb and tail shiver, unsteadiness, wobbly gait and limp tail. Within each sign score between 0-4 was given: where zero score means absent and score 4 means constant and uncontrollable appearance of the sign of the disease. Experimental groups of mice were divided into 4; each group contained 5 animals: one normal, one ND 4 mouse untreated and three ND 4 mice treated with RHAMM mimetic—P-peptide. Animals were treated three times per week with 10 mg/kg of P-peptide intraperitonealy. Peptide was resuspended in 300 μl of PBS.
The severity of the clinical signs increase until maximum around 6 months with animals dying around 8 to 9 months of age. The clinical signs assessed include general shaking, seizures, head jerk, hind limb and tail shiver, wobbly gait and limp tail. The scale of zero (absence) to four (constant and uncontrollable movements) was used for each of the clinical signs. […]

NOD mice = experiment: NOD mouse model of type I diabetes mellitus; format: in vivo; details: 5 mg/kg i.p. three times a week for 23 weeks
Method: There are different colonies of NOD mice and there can be some variability between the colonies. The colony used develops the disease between 15-20 weeks of age and there is a 70-80% incidence of diabetes mellitus. The mice treated were divided into two groups of 10 animals; the first group being treated with P-16 peptide and the other group comprising of the control group, which was treated with saline. Once the NOD mice were 5 weeks old, the P-16 peptide was injected three times a week interperitoneally at a dose of 5 mg/kg for 23 weeks. The untreated mice and five mice from the treated group were sacrificed at 28 weeks of age. The remaining five mice from the treated group were taken off the peptide treatment at 28 weeks of age and were assessed for the disease after 16 weeks.
There are different colonies of NOD mice and there can be some variability between the colonies. The colony used develops the disease between 15-20 weeks of age and there is a 70-80% incidence of diabetes mellitus. The mice treated were divided into three groups of 10 animals; the first two groups being treated with S-3 and S-7 peptides, and the third group comprising of the control group, which was treated with saline. Once the NOD mice were 5 weeks old, the S-3 and S-7 peptides were injected three times a week intraperitoneally at a dose of 0.1 mg/kg for 23 weeks.

invasive cells = experiment: motility of invasive cells treated with RHAMM exon peptides or antibodies (FIG. 16); format: cell-based; details: P<0.001 for peptide vs scrambled peptide
Excerpt: This effect is quantified in the graph shown in 16C and is highly significant (P<0.001, student's T test).

[4] = target: RHAMM binding to fibronectin (Homo sapiens, UniProt P02751); experiment: RHAMM binding to fibronectin (ELISA)
Excerpt: FIG. 21 further illustrates that RHAMM binds to the CS-1 fragment of fibomectin and not to the RGDS sequence which was previously considered to be a critical sequence for fibronectin signaling of matrix protein degradation.

[5] = binding to hyaluronic acid (HA)
Excerpt: The present invention provides a method of similar sensitivity but which is cheaper and more reliable. The method is based on using HA binding partners discovered using the techniques described above for detecting RHAMM binding partners. Using a phage display library to bind to biotinylated HA permitted identification of five particular species of HA binding motifs described in SEQ. ID NOS: 6-10. This was accomplished by isolating phage that attached to HA which were further isolated, rescreened twice and recloned. The clones were then bound to biotinylated HA-sepharose beads and only those phage that could be released with unlabeled HA were retrieved, recloned and sequenced. Five clones comprising the sequences identified above were detected. These sequences all bind to HA and are useful for detecting HA in serum and tissues in an assay described below.

human fibroblasts = experiment: velocity of cell locomotion of human fibroblasts on fibronectin; format: cell-based; details: 0.1-50 ng/ml, 16 hrs
Method: To quantify the effect of RHAMM sequence (amino acid residues 423-432; 423-432AA) to alter velocity of cell locomotion human fibroblasts were seeded on T-12.5 fibronectin coated flasks using A-MEM supplemented with glucose and 10% FBS. 2.5×10^4 cells were seeded and cells incubated for 4 hrs at 37° C. After incubation time cells were treated with increasing concentrations of RHAMM sequence peptide (423-432 AA, 0.1, 1.0, 5.0, 10 and 50 ng/ml) and cell locomotion was monitored over the period of 16 hrs on a 37° C. using 10× modulation objective (Zeiss, Germany) attached to a Zeiss Axiovert 100 inverted microscope equipped with Hoffman Modulation contrast optical filters (Greenvale, N.Y.). Cell images were captured with a CCD video camera module attached to a Hamamatsu CCD camera controller. Motility was assessed using Northern Exposure 2.9 image analysis software (Empix Imaging, Mississauga, Ontario). Nuclear displacement of 7-10 cells was measured and data were subjected to statistical analysis. Statistically significant (P<0.05) differences between means were assessed by the unpaired Student's T-test method, performed using Microsoft Excel '97 software.

EAE in SJL/J mice = experiment: EAE mouse model for multiple sclerosis; format: in vivo; details: 5 mg/kg i.p. daily; failed to reach statistical significance
Method: Acute EAE was induced by immunization of 3 months old SJL/J female mice (Jackson Lab.; Bar Harbor, Me.) with the MBP and PTX pertussis toxin. Each animal received a sub-cutaneous injection at tail base of 200 μg MBP in 0.1 ml of CFA and received an intravenous injection of 200 ng of PTX. Pertussis toxin was injected again 48 hours later. Mice (4 animals per group) were treated with one of the following treatments through intraperitoneal injections: P-32 peptide at a dose of 5 mg/kg daily; S-7 peptide at a dose of 0.1 mg/kg daily starting on the day of first immunization. Treatment was stopped at time of sacrifice. Mice were monitored daily from day 7 after immunization for clinical signs of EAE and were scored on a scale of 0 to 5. A score of 0 represented the absence of signs while a score of 5 was given to moribund animals.

[6] = test system: bleomycin-induced lung fibrosis; experiment: bleomycin-induced lung injury / fibrosis model; format: in vivo
Excerpt: As described in more detail below, the RHAMM peptide mimetics prevent these pathological events, particularly recruitment and activation of macrophages, from occurring following bleomycin-induced lung fibrosis (FIG. 32). In particular, the infiltration of inflammatory cells and local responses such as fibrosis is completely absent with treatment. […] Therefore, these reagents should be effective for treating lung diseases that involve recruiting macrophages and inflammatory cells, as well as fibrosis. FIG. 34 illustrates motility of BAL cells four days after injury in response to administration of RHAMM peptides. […] Values represent mean and standard error with three animals studied for each condition and at least 20 cells tracked per animal studied. Increased N-acetyl-β-glucosamimidase activity is a known marker for fibrosis in lung tissue. […] Briefly, bleomycin injury results in an increased glucosamimidase activity (* p<0.01 versus controls and saline animals). […] Values represent mean and standard error with five animals studied for each condition. FIG. 35B illustrates that mRNA of collagen type la in lungs harvested 4 days after injury is reduced in response to administration of HA binding Peptide A. Collagen type la is common indicator of fibrosis in lung tissue injury models as used throughout this invention. […] The data shown are representative of three independent experiments. The ability of HA binding peptides to inhibit fibrosis is further illustrated by histological analysis. FIG. 36 are micrographs from a histological analysis of lung tissue treated with and without HA binding Peptide A after bleomycin injury. Panels (a-c) show tissue after treatment with saline alone, and panels (d-f) show tissues injured by bleomycin treatment.

[7] = target: erk1 His-6-tagged fusion protein; experiment: peptide competition of erk1 His-6 binding to RHAMM v4 beads; D4 and D5 peptides present together

RHAMM binding to fibronectin, sequence (P02751 32-2477): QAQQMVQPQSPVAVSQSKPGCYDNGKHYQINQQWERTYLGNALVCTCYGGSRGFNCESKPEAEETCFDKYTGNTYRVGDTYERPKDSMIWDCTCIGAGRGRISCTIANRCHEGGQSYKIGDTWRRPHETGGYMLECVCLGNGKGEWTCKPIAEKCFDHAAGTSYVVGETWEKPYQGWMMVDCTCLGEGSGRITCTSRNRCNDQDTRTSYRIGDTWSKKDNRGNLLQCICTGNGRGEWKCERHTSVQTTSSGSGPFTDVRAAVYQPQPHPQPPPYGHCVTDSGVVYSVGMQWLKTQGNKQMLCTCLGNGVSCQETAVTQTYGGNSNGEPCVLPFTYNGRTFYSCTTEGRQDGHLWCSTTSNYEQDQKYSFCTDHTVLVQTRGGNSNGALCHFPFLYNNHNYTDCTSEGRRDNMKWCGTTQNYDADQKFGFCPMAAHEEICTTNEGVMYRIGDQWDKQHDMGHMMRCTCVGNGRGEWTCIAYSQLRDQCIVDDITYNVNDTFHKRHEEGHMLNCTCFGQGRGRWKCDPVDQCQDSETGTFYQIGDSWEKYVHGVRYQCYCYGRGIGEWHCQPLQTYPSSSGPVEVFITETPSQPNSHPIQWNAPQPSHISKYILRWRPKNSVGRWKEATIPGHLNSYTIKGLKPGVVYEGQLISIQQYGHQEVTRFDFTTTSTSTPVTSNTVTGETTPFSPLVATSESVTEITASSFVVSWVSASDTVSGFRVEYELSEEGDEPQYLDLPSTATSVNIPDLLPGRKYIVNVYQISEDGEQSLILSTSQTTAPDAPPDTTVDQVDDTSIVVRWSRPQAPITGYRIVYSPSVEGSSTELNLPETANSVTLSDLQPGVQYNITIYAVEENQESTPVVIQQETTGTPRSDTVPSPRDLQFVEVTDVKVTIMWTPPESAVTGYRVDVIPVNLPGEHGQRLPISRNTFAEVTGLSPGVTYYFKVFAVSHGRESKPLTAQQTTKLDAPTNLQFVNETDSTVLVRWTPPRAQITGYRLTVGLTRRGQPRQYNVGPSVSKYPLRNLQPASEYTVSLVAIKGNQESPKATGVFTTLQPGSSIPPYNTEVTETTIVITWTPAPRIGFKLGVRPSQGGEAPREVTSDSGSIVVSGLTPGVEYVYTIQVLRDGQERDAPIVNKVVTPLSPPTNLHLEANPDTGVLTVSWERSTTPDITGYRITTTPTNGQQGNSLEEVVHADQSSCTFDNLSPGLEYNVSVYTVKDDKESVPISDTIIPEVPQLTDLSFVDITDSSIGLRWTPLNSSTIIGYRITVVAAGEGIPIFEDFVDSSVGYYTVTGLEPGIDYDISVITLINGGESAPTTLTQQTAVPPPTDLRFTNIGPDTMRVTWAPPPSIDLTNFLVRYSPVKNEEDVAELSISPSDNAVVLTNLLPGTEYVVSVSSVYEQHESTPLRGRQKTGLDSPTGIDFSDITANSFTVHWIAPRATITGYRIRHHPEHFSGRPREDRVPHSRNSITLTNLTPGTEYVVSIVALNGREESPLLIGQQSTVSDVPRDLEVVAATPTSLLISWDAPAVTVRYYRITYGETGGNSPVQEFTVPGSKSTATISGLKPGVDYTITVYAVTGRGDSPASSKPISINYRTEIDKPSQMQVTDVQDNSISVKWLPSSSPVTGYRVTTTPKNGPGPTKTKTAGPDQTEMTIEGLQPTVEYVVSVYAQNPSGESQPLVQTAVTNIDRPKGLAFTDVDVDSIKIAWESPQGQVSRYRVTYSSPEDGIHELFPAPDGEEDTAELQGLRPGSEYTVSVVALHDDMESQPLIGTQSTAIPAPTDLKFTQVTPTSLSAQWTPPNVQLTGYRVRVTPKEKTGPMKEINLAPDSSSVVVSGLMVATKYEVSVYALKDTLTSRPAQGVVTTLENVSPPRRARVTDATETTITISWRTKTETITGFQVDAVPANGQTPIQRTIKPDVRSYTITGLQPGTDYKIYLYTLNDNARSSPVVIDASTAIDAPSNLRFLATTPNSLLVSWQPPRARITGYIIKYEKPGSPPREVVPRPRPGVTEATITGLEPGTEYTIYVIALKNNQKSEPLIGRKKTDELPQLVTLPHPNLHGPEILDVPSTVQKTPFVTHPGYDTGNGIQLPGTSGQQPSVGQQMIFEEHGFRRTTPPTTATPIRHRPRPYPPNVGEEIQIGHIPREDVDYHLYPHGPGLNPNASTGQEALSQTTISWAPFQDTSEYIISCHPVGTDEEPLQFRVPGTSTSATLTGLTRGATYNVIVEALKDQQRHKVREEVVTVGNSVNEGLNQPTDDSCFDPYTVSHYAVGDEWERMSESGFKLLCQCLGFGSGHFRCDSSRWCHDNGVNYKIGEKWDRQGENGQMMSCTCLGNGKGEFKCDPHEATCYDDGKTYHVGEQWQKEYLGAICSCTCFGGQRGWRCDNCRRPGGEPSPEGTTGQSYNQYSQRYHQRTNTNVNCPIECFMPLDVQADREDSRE

With `COc1cccc(-c2cc(=O)c3ccccc3o2)c1N` [PD09058] the number of podosomes [1] was “reduces the number of podosomes”, the “wound repair (cell migration into wounds)” value [2] was “blocks wound repair” and the “cell motility / locomotion” value [3] was “strongly reduces cellular locomotion”. The “cell invasion in vitro” value (MDA231 cells) was “blocks cell invasion”.

With “SEQ. ID NO: 16: peptide from murine RHAMM exon 4 (VSIEKEKIDEKCETEKLLEYIQEIS; listed as Mus musculus)” the formation of podosomes (LR21 cells) was “blocks the formation of podosomes”.

In the case of “RGGGRGGRR (Peptide that binds a hyalauronan) [peptide B]”, the “infiltration of macrophages in wounded biopsies (Glucosimimidase activity)” value (“infiltration of macrophages” for short) (excisional skin wound) is reported as “inhibited the infiltration of macrophages”.

With “CSTMMSRSHKTRSHHV [P-peptide, CSTMMSRSHKTRSHHV]” the “toxicological or lethal effects on animals” value (ND4 transgenic mice) was “without observing toxicological or lethal effects” and the toxicity (NOD mice) was “absence of any toxicity”.

In the case of “SEQ. ID NO: 15: peptide mimicking RHAMM exon 3, used to raise anti-exon 3 antibodies (KLQATQKDLTESKG; listed as Mus musculus)”, the “motility of invasive cells” value (invasive cells) is reported as “block the motility of invasive cells” and the “binding of RHAMM to fibronectin” value [4] is reported as “able to block the binding of intact RHAMM to fibronectin”.

In the case of “RGGGGGGGR (Peptide that binds a hyalauronan) [peptide D, reference compound]”, the “infiltration of macrophages” value (excisional skin wound) is reported as “does not inhibit macrophage infiltration” and the “binding to HA” value [5] is reported as “does not bind HA”.

With “RGGGRGGGR (Peptide that binds a hyalauronan) [C]” the “infiltration of macrophages” value (excisional skin wound) was “inhibited the infiltration of macrophages”.

In the case of “RHAMM sequence (423-432 AA): RHAMM sequence peptide, amino acid residues 423-432 (SEQ ID NO 24) (KLRSQLVKRKQ; Homo sapien)”, the “inhibition of migration of human fibroblasts” value (human fibroblasts) is reported as “up to 40%”.

With “KQKIKHVVKLKDENSQLKSEVSKLRCQLAKKK [P-32, specific RHAMM region]” the “decrease in mean clinical score” value (EAE in SJL/J mice) was 20%.

With “RGGGRGRRR (Peptide that binds a hyalauronan) [Peptide A]” the “increase in collagen type la mRNA in lungs” value ([6]; 4 days after injury) was “completely inhibited”, the “N-acetyl-β-glucosamimidase activity of BAL cells” value ([6]; 7 days after bleomycin injury) was “significantly decreased glucosamimidase activity” and the lung histology ([6]; after bleomycin injury) was “normal lung architecture”. For the same molecule, the “motility of BAL cells (macrophages)” value ([6]; four days after bleomycin injury, peptide given prior to injury) was “significantly lower cell locomotion” and the “infiltration of macrophages” value (excisional skin wound) was “inhibited the infiltration of macrophages”.

KQKIKHVVKLKDENSQLKSEVSKLRSQLVKRK [D5 peptide of RHAMM] gave a reduction of erk1 binding to v4 [7] of 90%.

Molecule QEKYNDTAQSLRDVTAQLESV [D4 peptide of RHAMM] has a reduction of erk1 binding to v4 [7] of 90%.

Source: patent US6911429B2, “Compositions and methods for treating cellular response to injury and other proliferating cell disorders regulated by hyaladherin and hyaluronans” (Transition Therapeutics Inc., priority 1999, dated 2005)
